These results are taken from patent publication US20110098309A1, “METHODS OF INHIBITING THE FORMATION OF AMYLOID-BETA DIFFUSABLE LIGANDS USING ACYLHYDRAZIDE COMPOUNDS” (priority 2007, published 2011).

“And” between values parts separate entries of the source, which are not always exact repeats. Equal values may be shown once.

T1 sequence (P05067 672-713 limits assumed): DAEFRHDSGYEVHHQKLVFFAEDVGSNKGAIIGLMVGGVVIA

One test deals with Aβ1-42 (Homo sapiens, UniProt P05067). In words: FRET assay of Aβ1-42 oligomer (ADDL) assembly inhibition. The conditions noted are these: 0.2 μM FITC-Aβ(1-42) and 0.8 μM Aβ(1-42), 37° C., six concentrations from about 10 μM to about 0.03 μM. The class given is biochemical. Put shortly: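 Fluorescein-quenching FRET read with 0.2 μM FITC-Aβ(1-42) plus 0.8 μM Aβ(1-42) in 25 mM MOPS-Tris pH 8.0, 100 mM MgCl2, 37° C. Compound tested at six concentrations from about 10 μM down to about 0.03 μM. Fluorescence read every five minutes over about three hours; inhibition seen as absent or attenuated quenching.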
Aβ1-42, sequence (P05067 672-713 limits assumed): as above
The compound `O=C(N/N=C/c1cccc(O)c1O)c1ccccc1O` [Compound 86, N′-(2,3-dihydroxy-benzylidene)-2-hydroxy-benzohydrazide] yielded an IC50 of 17.4 µM.
`O=C(N/N=C/c1ccc(N2CCOCC2)cc1O)c1ccccc1O` [Compound 87, 2-hydroxy-N′-(2-hydroxy-4-morpholino-benzylidene)-benzohydrazide] had an IC50 of 18.3 µM.
Same read-out and setting: as for `O=C(N/N=C/c1oc2ccc([N+](=O)[O-])cc2c1O)c1ccccc1O` [Compound 88, 2-hydroxy-N′-((3-hydroxy-5-nitro-benzofuran-2-yl)methylene) benzohydrazide], the figure is 20.4 µM.
Compound `O=C(N/N=C/c1ccc(O)cc1O)c1ccccc1O` [Compound 90, N′-(2,4-dihydroxybenzylidene)-2-hydroxy-benzohydrazide] displayed an IC50 of 21.4 µM.
`COc1cc(Cl)cc(/C=N/NC(=O)c2ccccc2O)c1O` [Compound 91, N′-(5-chloro-2-hydroxy-3-methoxy-benzylidene)-2-hydroxy-benzohydrazide] came in with an IC50 of 22.8 µM.
Still for that read-out and setting: as for `Cc1csc(C(=O)N/N=C/c2cc(Cl)ccc2O)c1Cl` [Compound 92, 3-chloro-N′-(5-chloro-2-hydroxybenzylidene)-4-methylthiophene-2-carbohydrazide], the figure is 23.7 µM; as for `Nc1ccc(Cl)cc1/C=N/NC(=O)c1ccccc1N` [Compound 93, 2-amino-N′-(2-amino-5-chlorobenzylidene)benzohydrazide], 23.9 µM.
The same measure, in the same setting: as for `COc1cccc(/C=N/NC(=O)c2ccccc2O)c1O` [Compound 94, 2-hydroxy-N′-(2-hydroxy-3-methoxybenzylidene)benzohydrazide], the figure is 24.9 µM.
Consider `COc1ccc(O)c(/C=N/NC(=O)c2c(O)cccc2F)c1` [Compound 95, 2-fluoro-6-hydroxy-N′-(2-hydroxy-5-methoxybenzylidene)benzohydrazide], for which the IC50 is 26.2 µM.
Compound `Cc1cccc(/C=N/NC(=O)c2ccccc2O)c1O` [Compound 96, 2-hydroxy-N′-(2-hydroxy-3-methylbenzylidene)benzohydrazide] yielded an IC50 of 28.6 µM.
The compound `Cc1cc(C(=O)N/N=C/c2c(O)ccc3ccccc23)[nH]n1` [Compound 97, N′-((2-hydroxynaphthalen-1-yl)methylene)-3-methyl-1H-pyrazole-5-carbohydrazide] came in with an IC50 of 30.6 µM.
Still for that read-out and setting: as for `COc1ccc(O)c(/C=N/NC(=O)c2cc(Br)ccc2O)c1` [Compound 98, 5-bromo-2-hydroxy-N′-(2-hydroxy-5-methoxybenzylidene)benzohydrazide], the figure is 31.9 µM; as for `O=C(N/N=C/c1cc([N+](=O)[O-])ccc1O)c1ccccc1O` [Compound 99, 2-hydroxy-N′-(2-hydroxy-5-nitrobenzylidene)benzohydrazide], 32.5 µM.
Same read-out and setting: under `COc1ccc(O)c(/C=N/NC(=O)c2ccccc2NS(C)(=O)=O)c1` [Compound 100, N-(2-(2-(2-hydroxy-5-methoxybenzylidene)hydrazinecarbonyl)phenyl)methanesulfonamide] stands 33.2 µM; under `O=C(N/N=C/c1cc(F)cc(F)c1O)c1ccccc1O` [Compound 101, N′-(3,5-difluoro-2-hydroxybenzylidene)-2-hydroxybenzohydrazide], 33.4 µM.
Compound `O=C(N/N=C(/c1cc(Cl)ccc1O)C(F)(F)F)c1ccccc1O` [Compound 102, N′-(1-(5-chloro-2-hydroxyphenyl)-2,2,2-trifluoroethylidene)-2-hydroxybenzohydrazide] came in with an IC50 of 34 µM.
Regarding `O=C(N/N=C/c1c(O)ccc2ccccc12)c1cc(C2CC2)n[nH]1` [Compound 103, 3-cyclopropyl-N′-((2-hydroxynaphthalen-1-yl)methylene)-1H-pyrazole-5-carbohydrazide], 34.5 µM corresponded to half-maximal inhibition (IC50).
Consider `COc1ccc(O)c(/C=N/NC(=O)c2cc([N+](=O)[O-])ccc2O)c1` [Compound 104, 2-hydroxy-N′-(2-hydroxy-5-methoxybenzylidene)-5-nitrobenzohydrazide], for which the IC50 was 35.1 µM.
The same measure, in the same setting: under `COc1ccc(O)c(/C=N/NC(=O)c2cccc3cccc(O)c23)c1` [Compound 105, 8-hydroxy-N′-(2-hydroxy-5-methoxybenzylidene)-1-naphthohydrazide] stands 36.5 µM; under `CCOc1cccc(/C=N/NC(=O)c2ccccc2O)c1O` [Compound 106, N′-(3-ethoxy-2-hydroxybenzylidene)-2-hydroxybenzohydrazide], 39.2 µM; under `COc1ccc(O)c(/C=N/NC(=O)c2cc(-c3ccc(Cl)s3)n[nH]2)c1` [Compound 107, 3-(5-chlorothiophen-2-yl)-N′-(2-hydroxy-5-methoxybenzylidene)-1H-pyrazole-5-carbohydrazide], 40.1 µM.
Same read-out and setting: as for `O=C(N/N=C/c1cc(Cl)cc(Br)c1O)c1ccccc1O` [Compound 108, N′-(3-bromo-5-chloro-2-hydroxybenzylidene)-2-hydroxybenzohydrazide], the figure is 41.7 µM; as for `COc1cc(Br)c(O)c(/C=N/NC(=O)c2ccccc2O)c1` [Compound 109, N′-(3-bromo-2-hydroxy-5-methoxybenzylidene)-2-hydroxybenzohydrazide], 42 µM.
Same read-out and setting: as for `COc1ccc(O)c(/C=N/NC(=O)c2ccccc2N)c1` [Compound 110, 2-amino-N′-(2-hydroxy-5-methoxybenzylidene)benzohydrazide], the figure is 42.3 µM; as for `Cc1nnsc1C(=O)N/N=C/c1cc(Cl)ccc1O` [Compound 111, N′-(5-chloro-2-hydroxybenzylidene)-4-methyl-1,2,3-thiadiazole-5-carbohydrazide], 42.9 µM.
Regarding `C/C(=N\NC(=O)c1cc(C)n[nH]1)c1ccccc1O` [Compound 112, N′-(1-(2-hydroxyphenyl)ethylidene)-3-methyl-1H-pyrazole-5-carbohydrazide], inhibition was half-maximal at 45.4 µM (IC50).
On the same count and under the same terms, under `O=C(N/N=C/c1cc(Cl)ccc1NS(=O)(=O)c1ccc(F)cc1F)c1ccccc1O` [Compound 114, N-(4-chloro-2-((2-(2-hydroxybenzoyl)hydrazono)methyl)phenyl)-2,4-difluorobenzenesulfonamide] stands 46.7 µM; under `O=C(N/N=C/c1c(O)ccc2ccccc12)c1ccc(O)cc1O` [Compound 115, 2,4-dihydroxy-N′-((2-hydroxynaphthalen-1-yl)methylene)benzohydrazide], 47.6 µM.
On the same count and under the same terms, under `Cc1ccc(/C=N/NC(=O)c2ccc3c(c2)OCO3)c(O)c1` [Compound 116, N′-(2-hydroxy-4-methylbenzylidene)benzo[d][1,3]dioxole-5-carbohydrazide] stands 50 µM.

The next test addresses T1, Aβ1-42 ADDLs (Homo sapiens, UniProt P05067).
T1 construct: Synthetic Aβ1-42 powder was dissolved in 1,1,1,3,3,3-hexafluorisopropanol (HFIP)
In words: Alternating Lever Cyclic Ratio (ALCR) rat model. It counts as in vivo. To be noted: 1 nM ADDLs + 2 μM compound, injection via cannula into lateral ventricle, rats tested about 3 hours after injection; compared to baseline error rates. As to the method:
Preparations of Aβ1-42 ADDLs and a potential therapeutic compound under the Alternating Lever Cyclic Ratio (ALCR) rat model of AD were tested to show in vivo efficacy. This highly sensitive model has been able to detect cognitive deficits due to direct injection of cell-derived Aβ oligomers into rat brain. Using this technique, a direct injection of ADDLs made from synthetic Aβ1-42 and a putative therapeutic compound under the ALCR procedure were tested.
In this task, rats learned a complex sequence of lever-pressing requirements in order to earn food reinforcement in a two-lever experimental chamber. Subjects alternated between two levers by switching to the other lever after pressing the first lever enough to get food reward. The exact number of presses required for each food reward changed, first increasing from 2 responses per food pellet up to 56 presses per food pellet, then decreasing back to 2 responses per pellet. Intermediate values were based on the quadratic function, x^2−x. One cycle was an entire ascending and descending sequence of these lever press requirements (e.g., 2, 6, 12, 20, 30, 42, 56, 56, 42, 30, 20, 12, 6, and 2 presses per food reward). Six such full cycles were presented during each daily session.
Synthetic Aβ1-42 powder was dissolved in 1,1,1,3,3,3-hexafluorisopropanol (HFIP) to afford a solution of Aβ1-42 in HFIP of about 1 mM and allowed to incubate at ambient temperature for about 1 h. The resulting solution was chilled on ice for about 5-10 min, then aliquoted into eppendorf tubes to provide about 50 μL of solution per tube. The tubes were then placed in a chemical fume hood and allowed to stand overnight to allow the HFIP to evaporate under a slow stream of nitrogen. To remove final traces of HFIP, the tubes were subjected to two SpeedVac cycles of 15 min at room temperature and about 15 to 25 mm Hg of vacuum. The resulting films of monomerized Aβ1-42 peptide were stored over desiccant at −80° C. until used.
A tube of monomerized Aβ1-42 peptide was warmed to room temperature and the Aβ1-42 peptide was dissolved in anhydrous DMSO to afford a peptide stock DMSO solution containing about 10 μM to about 100 μM Aβ1-42 peptide in DMSO.
The concentration of the test compound is listed below in Table 3.
For the Aβ1-42 peptide only treatment, peptide stock DMSO solution was added to 37° C. neural basal to obtain the requisite Aβ1-42 peptide monomer concentration, provided that the maximum concentration of DMSO is 1% or less, and the tube was vortexed for 30 to 60 seconds, spun down briefly in a microfuge and incubated at 37° C. for 15 min prior to the start of injections.
For the Aβ1-42 peptide plus test compound treatment, peptide stock DMSO solution was added to 37° C. compound neural basal media solution to obtain the requisite Aβ1-42 peptide monomer concentration, provided that the maximum concentration of DMSO is 1% or less, and the tube was vortexed for 30 to 36 seconds, spun down briefly in a microfuge and incubated at 37° C. for 15 min prior to the start of injections.
For control injections, compound neural basal media solution was incubated at 37° C. for 15 min prior to the start of injections.
Rats: Rats are trained under ALCR until their error rates are stable. Once the rats are placed upon the final ALCR procedure, training sessions are conducted 7 days each week until the end of the study.
Surgery: All rats received a single 28 gauge cannula, which was permanently affixed to the skull, and aimed at the lateral ventricle. Half of the rats received cannula in the right ventricle and half receive cannula in the left ventricle. Rats were allowed 5 days to recover from surgery before training resumed.
Injection of Test Material and ALCR Testing: Test were conducted about every fourth day. Animals received a 10-20 μL injection of control, peptide, or peptide plus compound solutions via the implanted cannula over about 3 to 4 minutes. Animals were tested about 3 hours following injection. […]
Consider `O=C(N/N=C/c1c(O)ccc2ccccc12)c1ccccc1O` [Compound 89, 2-hydroxy-N′-((2-hydroxy-naphthalen-1-yl)methylene)benzohydrazide], for which the “Approach Errors” value was 100% and 111%; the “Perseveration Errors” value was 92% and 107%.

The same test, now with this note: 2 μM compound alone (no ADDLs), injection via cannula into lateral ventricle, rats; compared to baseline error rates.
`O=C(N/N=C/c1c(O)ccc2ccccc12)c1ccccc1O` [Compound 89, 2-hydroxy-N′-((2-hydroxy-naphthalen-1-yl)methylene)benzohydrazide]: the “Approach Errors” value is listed as 101% and the “Perseveration Errors” value came out at 112%.

The test is the same for the next values; noted with them: ADDLs injected along with compound, rats.
With `O=C(N/N=C/c1c(O)ccc2ccccc12)c1ccccc1O` [Compound 89, 2-hydroxy-N′-((2-hydroxy-naphthalen-1-yl)methylene)benzohydrazide], the “Perseveration error (in words)” value is recorded as “decreased significantly”.
